Assay [1] addresses T1, Bromodomain-containing protein 4 (Homo sapiens, UniProt O60885). Description: Inhibition of human BRD4-BD1 expressed in Escherichia coli BL21 after 1 hr by BROMOscan assay.
A further assay concerns the target T2, Peregrin (Homo sapiens, UniProt P55201).
T2 sequence (P55201 whole entry): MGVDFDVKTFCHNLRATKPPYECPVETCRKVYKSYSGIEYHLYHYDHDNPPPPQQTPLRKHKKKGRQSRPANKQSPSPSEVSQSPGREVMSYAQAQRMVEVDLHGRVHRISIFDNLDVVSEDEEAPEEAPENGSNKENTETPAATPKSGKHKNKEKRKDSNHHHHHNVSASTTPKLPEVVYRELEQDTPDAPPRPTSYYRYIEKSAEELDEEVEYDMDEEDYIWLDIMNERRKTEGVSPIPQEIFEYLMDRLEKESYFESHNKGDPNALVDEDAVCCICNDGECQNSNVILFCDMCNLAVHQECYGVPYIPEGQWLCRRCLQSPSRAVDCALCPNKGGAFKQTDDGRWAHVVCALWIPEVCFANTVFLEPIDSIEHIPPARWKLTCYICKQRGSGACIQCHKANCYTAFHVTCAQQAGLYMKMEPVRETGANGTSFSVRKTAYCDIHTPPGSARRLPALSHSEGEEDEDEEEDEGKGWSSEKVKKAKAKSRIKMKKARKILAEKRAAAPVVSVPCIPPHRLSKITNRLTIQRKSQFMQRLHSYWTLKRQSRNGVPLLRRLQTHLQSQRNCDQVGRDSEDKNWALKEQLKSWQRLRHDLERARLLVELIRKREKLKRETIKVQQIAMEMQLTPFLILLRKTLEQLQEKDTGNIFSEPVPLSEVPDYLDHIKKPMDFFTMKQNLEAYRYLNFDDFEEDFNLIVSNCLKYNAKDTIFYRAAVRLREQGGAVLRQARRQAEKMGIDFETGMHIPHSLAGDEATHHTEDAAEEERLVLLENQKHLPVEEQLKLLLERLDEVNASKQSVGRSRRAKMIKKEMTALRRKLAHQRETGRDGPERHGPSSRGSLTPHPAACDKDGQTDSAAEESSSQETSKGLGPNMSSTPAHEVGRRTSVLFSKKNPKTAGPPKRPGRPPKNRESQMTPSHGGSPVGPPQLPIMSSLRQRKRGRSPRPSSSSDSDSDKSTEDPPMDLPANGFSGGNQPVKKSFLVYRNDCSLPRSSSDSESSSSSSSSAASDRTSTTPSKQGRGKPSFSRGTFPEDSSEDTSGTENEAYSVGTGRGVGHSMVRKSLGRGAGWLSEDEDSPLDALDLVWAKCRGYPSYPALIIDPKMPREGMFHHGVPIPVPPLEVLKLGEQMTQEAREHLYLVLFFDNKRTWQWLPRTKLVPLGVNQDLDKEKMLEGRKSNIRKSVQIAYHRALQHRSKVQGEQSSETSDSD
In words: Inhibition of human BRPF1 expressed in Escherichia coli BL21 after 1 hr by BROMOscan assay.

The next assay concerns the target T3, Peregrin (Homo sapiens) (UniProt P55201).
T3 sequence (whole entry): T2 sequence (P55201 whole entry)

Assay [2] addresses T4, Bromodomain-containing protein 1 (Homo sapiens) (UniProt O95696).
T4 sequence (whole entry): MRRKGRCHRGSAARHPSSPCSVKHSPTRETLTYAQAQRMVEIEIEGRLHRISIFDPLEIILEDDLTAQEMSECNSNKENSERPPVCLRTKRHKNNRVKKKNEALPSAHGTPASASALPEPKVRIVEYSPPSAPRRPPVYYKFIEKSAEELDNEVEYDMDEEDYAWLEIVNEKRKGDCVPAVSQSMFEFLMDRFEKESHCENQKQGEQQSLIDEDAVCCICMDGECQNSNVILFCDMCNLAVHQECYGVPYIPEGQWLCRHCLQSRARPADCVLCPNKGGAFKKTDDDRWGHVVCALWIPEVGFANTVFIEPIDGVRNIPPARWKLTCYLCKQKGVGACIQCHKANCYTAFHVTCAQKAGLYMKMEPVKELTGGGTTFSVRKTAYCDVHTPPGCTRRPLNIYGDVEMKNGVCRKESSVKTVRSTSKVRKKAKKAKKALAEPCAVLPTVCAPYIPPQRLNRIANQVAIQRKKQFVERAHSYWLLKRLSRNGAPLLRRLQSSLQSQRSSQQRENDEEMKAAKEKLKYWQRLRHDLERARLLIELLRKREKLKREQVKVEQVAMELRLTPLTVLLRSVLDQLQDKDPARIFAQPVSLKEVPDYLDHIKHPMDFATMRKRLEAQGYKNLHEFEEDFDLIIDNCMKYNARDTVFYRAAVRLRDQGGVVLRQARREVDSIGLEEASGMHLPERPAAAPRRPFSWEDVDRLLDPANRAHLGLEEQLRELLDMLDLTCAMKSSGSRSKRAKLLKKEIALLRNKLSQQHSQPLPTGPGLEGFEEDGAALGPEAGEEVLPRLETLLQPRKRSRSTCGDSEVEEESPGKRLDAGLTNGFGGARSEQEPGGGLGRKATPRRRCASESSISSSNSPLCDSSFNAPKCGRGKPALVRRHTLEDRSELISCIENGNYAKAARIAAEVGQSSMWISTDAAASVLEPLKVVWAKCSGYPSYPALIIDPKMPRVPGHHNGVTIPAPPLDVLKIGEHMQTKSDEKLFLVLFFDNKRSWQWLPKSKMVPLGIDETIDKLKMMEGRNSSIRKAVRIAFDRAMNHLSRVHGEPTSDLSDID

The target in assay [3] is T5, Bromodomain and PHD finger-containing protein 3 (Homo sapiens) (UniProt Q9ULD4).
T5 sequence (whole entry): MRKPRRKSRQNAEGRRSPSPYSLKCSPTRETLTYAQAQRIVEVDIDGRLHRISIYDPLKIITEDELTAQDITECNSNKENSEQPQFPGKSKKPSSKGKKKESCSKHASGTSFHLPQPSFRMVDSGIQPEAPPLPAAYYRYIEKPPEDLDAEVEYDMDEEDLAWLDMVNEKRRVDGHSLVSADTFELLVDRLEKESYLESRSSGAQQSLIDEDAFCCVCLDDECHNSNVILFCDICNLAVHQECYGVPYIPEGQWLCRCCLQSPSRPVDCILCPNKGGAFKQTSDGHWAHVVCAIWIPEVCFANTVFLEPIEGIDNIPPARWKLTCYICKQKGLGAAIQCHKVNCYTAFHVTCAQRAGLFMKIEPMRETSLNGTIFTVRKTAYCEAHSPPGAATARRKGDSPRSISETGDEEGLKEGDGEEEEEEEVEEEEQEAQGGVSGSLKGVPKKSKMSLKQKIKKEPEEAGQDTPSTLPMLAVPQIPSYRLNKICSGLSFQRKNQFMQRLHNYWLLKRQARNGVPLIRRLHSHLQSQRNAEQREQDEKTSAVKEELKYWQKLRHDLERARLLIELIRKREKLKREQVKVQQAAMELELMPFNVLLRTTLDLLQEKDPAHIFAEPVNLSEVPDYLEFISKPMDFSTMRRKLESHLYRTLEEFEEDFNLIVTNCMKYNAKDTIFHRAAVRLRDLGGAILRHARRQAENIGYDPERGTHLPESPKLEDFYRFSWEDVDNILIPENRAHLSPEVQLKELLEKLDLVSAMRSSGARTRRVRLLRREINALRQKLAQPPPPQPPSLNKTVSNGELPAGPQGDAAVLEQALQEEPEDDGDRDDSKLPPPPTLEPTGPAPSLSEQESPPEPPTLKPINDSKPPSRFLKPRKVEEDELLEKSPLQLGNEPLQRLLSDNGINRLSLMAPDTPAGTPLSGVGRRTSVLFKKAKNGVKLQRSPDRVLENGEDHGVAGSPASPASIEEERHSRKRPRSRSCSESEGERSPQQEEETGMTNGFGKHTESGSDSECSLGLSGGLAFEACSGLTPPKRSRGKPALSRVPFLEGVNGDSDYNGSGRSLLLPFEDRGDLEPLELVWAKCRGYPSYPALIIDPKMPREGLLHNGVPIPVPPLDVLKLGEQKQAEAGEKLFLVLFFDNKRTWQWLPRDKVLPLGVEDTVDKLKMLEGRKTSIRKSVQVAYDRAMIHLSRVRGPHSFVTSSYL

Assay [4] has as its target T6, Bromodomain-containing protein 9 (Homo sapiens, UniProt Q9H8M2).
T6 sequence (Q9H8M2 whole entry): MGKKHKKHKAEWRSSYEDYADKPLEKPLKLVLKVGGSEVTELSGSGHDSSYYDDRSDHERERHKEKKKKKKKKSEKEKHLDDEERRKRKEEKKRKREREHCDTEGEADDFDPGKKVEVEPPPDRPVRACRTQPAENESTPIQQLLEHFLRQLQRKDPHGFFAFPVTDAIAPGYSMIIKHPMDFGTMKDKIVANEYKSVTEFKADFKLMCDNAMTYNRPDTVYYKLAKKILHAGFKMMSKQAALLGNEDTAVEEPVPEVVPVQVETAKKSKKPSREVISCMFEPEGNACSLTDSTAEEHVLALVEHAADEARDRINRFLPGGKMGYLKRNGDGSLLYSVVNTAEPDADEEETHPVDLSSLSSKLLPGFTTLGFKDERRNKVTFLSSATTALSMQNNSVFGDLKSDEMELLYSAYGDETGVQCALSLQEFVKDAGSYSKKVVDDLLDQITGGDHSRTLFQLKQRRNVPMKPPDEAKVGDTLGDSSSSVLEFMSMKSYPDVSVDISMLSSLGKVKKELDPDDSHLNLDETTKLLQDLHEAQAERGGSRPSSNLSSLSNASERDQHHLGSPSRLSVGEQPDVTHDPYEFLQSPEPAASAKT
In words: Inhibition of human BRD9 expressed in Escherichia coli BL21 after 1 hr by BROMOscan assay.

For assay [5], the target named is T7, Bromodomain-containing protein 9 (Homo sapiens) (UniProt Q9H8M2).
T7 sequence (whole entry): T6 sequence (Q9H8M2 whole entry)

In assay [6] the target is T1, Bromodomain-containing protein 4.
The target in assay [7] is T8, Bromodomain-containing protein 1 (Homo sapiens, UniProt O95696).
T8 sequence (O95696 whole entry): T4 sequence (whole entry)
In words: Inhibition of human BRPF2-BRD1 expressed in Escherichia coli BL21 after 1 hr by BROMOscan assay.

For assay [8], the target named is T9, Bromodomain and PHD finger-containing protein 3 (Homo sapiens, UniProt Q9ULD4).
T9 sequence (Q9ULD4 whole entry): T5 sequence (whole entry)
Description: Inhibition of human BRPF3 expressed in Escherichia coli BL21 after 1 hr by BROMOscan assay.

As a reminder, the IC50 is the concentration that inhibits the measured activity by half. Read a low IC50 as greater potency in that assay. For the molecule `COc1ccccc1S(=O)(=O)Nc1ccc2c(c1)cc(C)c(=O)n2C`, in [1], it took 600 nM to reach half-maximal inhibition (IC50).
As a reminder, the ΔTm is the shift of the melting midpoint relative to a reference. In the case of `CCn1c(=O)c(C)cc2cc(NS(=O)(=O)c3ccc(C#N)cc3)ccc21`, the IC50 against Peregrin came to 15 nM. Further, the shift in melting temperature (ΔTm) at Peregrin (Homo sapiens) worked out at 5.2 °C; in assay [2], 1.5 °C; in assay [3], 1.2 °C.
`CCc1cc2cc(NS(=O)(=O)c3ccc(C#N)cc3)ccc2n(C)c1=O` yielded a half-inhibitory concentration (IC50) against Peregrin of 180 nM. Besides, the shift in melting temperature (ΔTm) in [2] is 3.3 °C.
Regarding `Cn1c(=O)ccc2cc(NS(=O)(=O)c3ccccc3)ccc21`, the values for the IC50 in [4] and in assay [1] were 220 nM and 1700 nM, respectively. The thermal shift (ΔTm) in [2] was 1.9 °C; in [3] it was 1.5 °C; in [5] it was 3.5 °C; in [6], 1.1 °C.
Molecule `Cc1cc2cc(N)ccc2n(C)c1=O` yielded a 50% inhibitory concentration (IC50) against Peregrin of 190 nM.
Still for that read-out and setting: the result for `Cn1c(=O)ccc2cc(N)ccc21` reads 2100 nM.
Consider `Cn1c(=O)ccc2cc(NS(=O)(=O)c3cccc(C#N)c3)ccc21`, for which the results for the shift in melting temperature (ΔTm) in assay [2], in assay [5] and in assay [6] were 2.1 °C, 2.5 °C and 1.1 °C, respectively.
For `Cn1c(=O)ccc2cc(NS(=O)(=O)c3ccccc3C#N)ccc21`, in that order: 0.9 °C, 2.9 °C and 1.3 °C.
On to `Cn1c(=O)ccc2cc(NS(=O)(=O)c3ccc(Cl)c(Cl)c3)ccc21`, for which the IC50 against Peregrin stood at 44 nM; in assay [7], 230 nM. The ΔTm on Peregrin (Homo sapiens) is 4.9 °C; in [2] it was 2.5 °C.
For `Cn1c(=O)ccc2cc(NS(=O)(=O)c3ccc(C#N)cc3F)ccc21`, the ΔTm was determined as 3.6 °C on Peregrin (Homo sapiens), 1.3 °C in assay [2] and 1.2 °C in assay [3].
Take `Cn1c(=O)ccc2cc(NS(=O)(=O)c3ccc(C#N)cc3)ccc21`: the figures for the IC50 in assay [8] and in assay [1] were 1000 nM and 2800 nM, respectively. Also, the ΔTm in [2] amounted to 2.4 °C; in assay [5], 2.3 °C; in assay [6], 1.4 °C.

The record behind these values is ChEMBL document CHEMBL4052588, “Design of a Biased Potent Small Molecule Inhibitor of the Bromodomain and PHD Finger-Containing (BRPF) Proteins Suitable for Cellular and in Vivo Studies” (J Med Chem, 2017).
